# Reference: PMC7036753, “Lipidated Analogs of the LL-37-Derived Peptide Fragment KR12—Structural Analysis, Surface-Active Properties and Antimicrobial Activity” (International Journal of Molecular Sciences, 2020)
# Peptide text beside a SMILES is read from it. * marks the point of attachment. Bz = O=C(c1ccccc1)*
# Tests used:
# P. aeruginosa ATCC 9027 = type: cell-based, Pseudomonas aeruginosa; details: P. aeruginosa ATCC 9027; Mueller-Hinton Broth, 18 h
# Protocol: (§1) Examination of antimicrobial activity of the test compounds was conducted on reference strains of bacteria assigned to ESKAPE group of pathogens: Enterococcus faecium ATCC 700221, Klebsiella pneumoniae ATCC 700603, Acinetobacter baumannii ATCC BAA-1605, Pseudomonas aeruginosa ATCC 9027, Klebsiella aerogenes ATCC 13048 (formerly Enterobacter aerogenes) and reference strains of Staphylococcus aureus, namely: S. aureus ATCC 25923, S. aureus ATCC 6538, S. aureus ATCC 33591 (MRSA), S. aureus ATCC 9144 and S. aureus ATCC 12598. All the strains were stored at −80 °C in Roti®-Store cryo vials (Carl Roth GmbH, Karlsruhe, Germany) and before the tests were transferred into fresh Mueller-Hinton Medium (BioMaxima, Lublin, Poland) and incubated for 24 h at 37 °C. Subsequently, each bacterial inoculum was seeded on Mueller-Hinton Agar plates (BioMaxima) and incubated again for 24 h. The cultures prepared in this way were used in further antimicrobial assays and prepared as described above. The MIC values were determined by the broth microdilution method according to Clinical and Laboratory Standards Institute Protocol. For this purpose, initial inoculums of bacteria (0.5 × 10^5 colony forming unit (CFU)/mL) in Mueller–Hinton Broth were exposed to the ranging concentrations of compounds (0.5–256 µg/mL) and incubated for 18 h at 37 °C. The experiments were conducted on 96-well microtiter plates, with a final volume of 100 µL. Cell densities were adjusted spectrophotometrically (Multiskan™ GO Microplate Spectrophotometer, Thermo Scientific) at 600 nm. The MICs were taken as the lowest drug concentration at which a visible growth of microorganisms was inhibited. All experiments were conducted in triplicate and included positive (growth) and negative (sterility) controls.
# [1] = test system: K. pneumoniae ATCC 700603; type: cell-based, Klebsiella pneumoniae; details: K. pneumoniae ATCC 700603; Mueller-Hinton Broth, 18 h
# Protocol: as §1
# S. aureus ATCC 9144 = type: cell-based, Staphylococcus aureus; details: S. aureus ATCC 9144; Mueller-Hinton Broth, 18 h
# Protocol: as §1
# S. aureus ATCC 25923 = type: cell-based, Staphylococcus aureus; details: S. aureus ATCC 25923; Mueller-Hinton Broth, 18 h
# Protocol: as §1
# S. aureus ATCC 6538 = type: cell-based, Staphylococcus aureus; details: S. aureus ATCC 6538; Mueller-Hinton Broth, 18 h
# Protocol: as §1
# [2] = test system: S. aureus ATCC 33591 (MRSA); type: cell-based, Staphylococcus aureus; details: S. aureus ATCC 33591 (MRSA); Mueller-Hinton Broth, 18 h
# Protocol: as §1
# [3] = test system: S. aureus ATCC 9144 biofilm; type: cell-based, Staphylococcus aureus; details: S. aureus ATCC 9144 biofilm, 24 h
# Protocol: (§2) The MBECs values were determined according to the method reported previously. Briefly, 24-h cultures of S. aureus, namely: S. aureus ATCC 25923, S. aureus ATCC 6538, S. aureus ATCC 33591 (MRSA), S. aureus ATCC 9144 and S. aureus ATCC 12598 were diluted to a concentration of 0.5 × 10^7 CFU/mL and added to the test wells of polystyrene microdilution flat-bottom plates. After 24-h of incubation at 37 °C, the wells were rinsed three times with PBS to remove non-adherent cells. Subsequently, 100 μL of the test compounds over a concentration range 0.5–256 µg/mL were added to each well and incubated again for 24 h at 37 °C. After this period, 20 μL of the resazurin (7-hydroxy-3H-phenoxazin-3-one-10-oxide, 4 mg/mL) solution was added to each well. After 1 h of incubation, the MBECs were read out. The determined values were recorded as the lowest concentration at which the reduction of resazurin (from blue to pink) was lower or equal to 10 ± 0.5% as compared to the positive (100%) and negative (0%) controls. All experiments were performed in triplicate.
# [4] = test system: S. aureus ATCC 6538 biofilm; type: cell-based, Staphylococcus aureus; details: S. aureus ATCC 6538 biofilm, 24 h
# Protocol: as §2
# [5] = test system: S. aureus ATCC 25923 biofilm; type: cell-based, Staphylococcus aureus; details: S. aureus ATCC 25923 biofilm, 24 h
# Protocol: as §2
# [6] = test system: S. aureus ATCC 12598 biofilm; type: cell-based, Staphylococcus aureus; details: S. aureus ATCC 12598 biofilm, 24 h
# Protocol: as §2
# [7] = test system: S. aureus ATCC 33591 (MRSA) biofilm; type: cell-based, Staphylococcus aureus; details: S. aureus ATCC 33591 biofilm, 24 h
# Protocol: as §2
# K. aerogenes ATCC 13048 = type: cell-based, Klebsiella aerogenes; details: K. aerogenes ATCC 13048; Mueller-Hinton Broth, 18 h
# Protocol: as §1
# [8] = test system: reference strains of S. aureus; type: cell-based, Staphylococcus aureus; details: five reference strains of S. aureus
# Protocol: as §1, with “For this purpose, initial inoculums of bacteria (0.5 × 10^5 colony forming unit (CFU)/mL) in Mueller–Hinton Broth were exposed to the ranging concentrations of compounds (0.5–256 µg/mL) and incubated for 18 h at 37 °C.” left out
compound,measurement,setting,value
"CC[C@H](C)[C@H](NC(=O)[C@H](CCCNC(=N)N)NC(=O)[C@H](CCC(N)=O)NC(=O)[C@@H](NC(=O)[C@@H](NC(=O)[C@H](CCCNC(=N)N)NC(=O)[C@H](CCCCN)NC(=O)c1ccccc1)[C@@H](C)CC)C(C)C)C(=O)N[C@@H](CCCCN)C(=O)N[C@@H](CC(=O)O)C(=O)N[C@@H](Cc1ccccc1)C(=O)N[C@@H](CC(C)C)C(=O)N[C@@H](CCCNC(=N)N)C(N)=O [VIII, Benzoic acid-KR12-NH2] (Bz-KRIVQRIKDFLR-NH2)",MIC,P. aeruginosa ATCC 9027,8 µg/mL
same,MIC,[1],16 µg/mL
same,MIC,S. aureus ATCC 9144,16 µg/mL
same,MIC,S. aureus ATCC 25923,32 µg/mL
same,MIC,S. aureus ATCC 6538,8 µg/mL
same,MIC,[2],32 µg/mL
same,MBEC,[3],16 µg/mL
same,MBEC,[4],32 µg/mL
same,MBEC,[5],64 µg/mL
same,MBEC,[6],16 µg/mL
same,MBEC,[7],32 µg/mL
same,MIC,K. aerogenes ATCC 13048,16 µg/mL
same,GM (geometric mean of the MIC values against S. aureus),[8],18.38 µg/mL
